According to ChEMBL document CHEMBL1127994, “Substrate specificity of immobilized penicillin-G acylase towards penicillin and cephalosporin derivatives was studied. The phenylacetyl moiety can be altered at the -position with several small substituents. Depending on polarity and size of the substituent, enzyme activity decreases or increases. …” (Bioorg Med Chem Lett, 1994):

system: not listed separately; assay: (§1) Hydrolysis half life using immobilized penicillin-G acylase; format: ADME; conditions: not given

Row | Compound | T1/2 [min]
1 | CC1=C(C(=O)O)N2C(=O)[C@@H](NC(=O)Cc3ccccc3)[C@H]2[S+]([O-])C1 (stereo in doubt; form 1) | 200
2 | CC1=C(C(=O)O)N2C(=O)[C@@H](NC(=O)Cc3ccccc3)[C@H]2[S+]([O-])C1 (stereo in doubt; form 2) | 33

system: penicillin-G acylase; assay: as §1; format: ADME; conditions: immobilized penicillin-G acylase

Row | Compound | half-life [min]
3 | Cn1nnnc1SCC1=C(C(=O)O)N2C(=O)[C@@H](NC(=O)Cc3ccccc3)[C@H]2SC1 | 50
4 | CC1(C)[C@H](C(=O)O)N2C(=O)[C@@H](NC(=O)Cc3ccccc3)[C@H]2[S+]1[O-] (some centres not stated) | 90
5 | CC1(C)S[C@@H]2[C@H](NC(=O)C(Br)c3ccccc3)C(=O)N2[C@H]1C(=O)O (some centres not stated) | 80
6 | CC1=C(C(=O)O)N2C(=O)[C@@H](NC(=O)COc3ccccc3)[C@H]2SC1 | 1280
7 | O=C(Cc1ccccc1)N[C@@H]1C(=O)N2C(C(=O)O)=CCS[C@H]12 | 25
8 | CC1=C(C(=O)O)N2C(=O)[C@@H](NC(=O)Cc3ccccc3)[C@H]2SC1 | 45
9 | CC1(C)S[C@@H]2[C@H](NC(=O)Cc3ccccc3)C(=O)N2[C@H]1C(=O)O [PENICILLIN G] | 25
10 | CC1=C(C(=O)O)N2C(=O)[C@@H](NC(=O)c3ccccc3)[C@H]2SC1 | > 10000
11 | CC1(C)[C@H](C(=O)O)N2C(=O)[C@@H](NC(=O)Cc3ccccc3)[C@H]2S1(=O)=O | 50
12 | CC1(C)S[C@@H]2[C@H](NC(=O)[C@H](N)c3ccc(O)cc3)C(=O)N2[C@H]1C(=O)O [AMOXICILLIN] | 12
13 | CC1=C(C(=O)O)N2C(=O)[C@@H](NC(=O)C(O)c3ccccc3)[C@H]2SC1 (some centres not stated) | 5
14 | C=CC1=C(C(=O)O)N2C(=O)[C@@H](NC(=O)Cc3ccccc3)[C@H]2SC1 | 55
15 | CC1=C(C(=O)O)N2C(=O)[C@@H](NC=O)[C@H]2[S+]([O-])C1 (some centres not stated) | > 10000
16 | C/C=C/C1=C(C(=O)O)N2C(=O)[C@@H](NC(=O)Cc3ccccc3)[C@H]2SC1 | 50
17 | CC1=C(C(=O)O)N2C(=O)[C@@H](NC(=O)C(Br)c3ccccc3)[C@H]2[S+]([O-])C1 (some centres not stated) | 370
18 | CC1(C)S[C@@H]2[C@H](NC(=O)C(Cc3ccccc3)c3ccccc3)C(=O)N2[C@H]1C(=O)O (some centres not stated) | 7000
19 | CCC(C(=O)N[C@@H]1C(=O)N2[C@@H]1SC(C)(C)[C@@H]2C(=O)O)c1ccccc1 (some centres not stated) | 3400
20 | CC1(C)S[C@@H]2[C@H](NC(=O)[C@H](N)c3ccccc3)C(=O)N2[C@H]1C(=O)O [AMPICILLIN] | 5
21 | CC1=C(C(=O)O)N2C(=O)[C@@H](NC(=O)COc3ccccc3)[C@H]2[S+]([O-])C1 (some centres not stated) | 1420
22 | CC1=C(C(=O)O)N2C(=O)[C@@H](NC(=O)Cc3ccsc3)[C@H]2SC1 | 65
